These results are taken from patent US4450269A, “Mono-5-substituted-3-chloro-4H-1,2,6-thiadiazin-4-one antifungal agents” (FMC Corporation, priority 1980, dated 1984).

In one experiment the test system is Pyricularia oryzae. Format: cell-based. The settings on record: PO, 48 hours.
The subject of the next experiment is Fusarium solani. Nature of the experiment: Mycelial growth test. The experiment is classed as cell-based. To be noted: Fusarium solani, 72 h; for inhibition at 5 ppm / inhibition at 10 ppm / inhibition at 20 ppm: PS, 72 hours, read-out: Percent Fungus Growth Inhibition; for inhibition at 40 ppm: read-out: Percent Fungus Growth Inhibition, PS, 40 ppm, 72 hours.
The test system of experiment [1] is Uromyces phaseoli. The experiment in a line: whole plant or invertebrate. To be noted: foliar, read-out: Percent Disease Control, foliar, bean rust.
For experiment [2], the system named is Uromyces phaseoli. Nature of the experiment: whole plant or invertebrate. The settings on record: foliar, 24 h, read-out: Percent Disease Control, curative, bean rust.

Molecules are shown by their SMILES. Like-named read-outs stand apart in the source and are kept apart here.

Regarding `CC(=O)c1ccccc1Oc1nsnc(Cl)c1=O` [Compound 49, 3-(2-acetylphenoxy)-5-chloro-4H--1,2,6-thiadiazin-4-one], the “Spore Germination Rating” value in the experiment on Pyricularia oryzae (1.0 ppm) is listed as 2 (40-60); in the experiment on Pyricularia oryzae (2.5 ppm) it was 1 (10-40); with Pyricularia oryzae (10 ppm), 0 (0-10); in the experiment on Pyricularia oryzae (40 ppm), 0 (0-10). Further, the inhibition – broadly, the relative decrease from the control value, in per cent – at 5 ppm with Fusarium solani was 0%. Besides, the inhibition at 10 ppm with Fusarium solani was 7%. For the same compound, the inhibition at 20 ppm in the experiment on Fusarium solani stood at 34%. The inhibition at 40 ppm in the experiment on Fusarium solani stood at 67%. The pest or weed control at 150 ppm amounted to 100% in the experiment with Uromyces phaseoli [1] and 0% with Uromyces phaseoli [2].
On to `O=C(O)c1ccc(Oc2nsnc(Cl)c2=O)cc1` [Compound 50, 3-(4-carboxyphenoxy)-5-chloro-4H--1,2,6-thiadiazin-4-one], for which the “Spore Germination Rating” value in the experiment with Pyricularia oryzae (1.0 ppm) was 4 (80-100); with Pyricularia oryzae (2.5 ppm), 4 (80-100); in the experiment with Pyricularia oryzae (10 ppm) it was 4 (80-100); in the experiment with Pyricularia oryzae (40 ppm), 0 (0-10). Further, in the experiment on Fusarium solani, the inhibition at 5 ppm came out at 25%. In addition, the inhibition at 10 ppm in the experiment with Fusarium solani was determined as 38%. Further, the inhibition at 20 ppm with Fusarium solani is 63%. Moreover, the inhibition at 40 ppm in the experiment on Fusarium solani came to 100%. Further, the pest or weed control at 150 ppm stood at 90% in the experiment on Uromyces phaseoli [1] and 0% with Uromyces phaseoli [2].
With `COc1ccc(Cl)c(Oc2nsnc(Cl)c2=O)c1` [Compound 51, 3-chloro-5-[(2-chloro-5-methoxy)phenoxy]-4H--1,2,6-thiadiazin-4-one], the “Spore Germination Rating” value is 3 (60-80) with Pyricularia oryzae (1.0 ppm), 0 (0-10) in the experiment with Pyricularia oryzae (2.5 ppm), 0 (0-10) in the experiment with Pyricularia oryzae (10 ppm) and 0 (0-10) in the experiment on Pyricularia oryzae (40 ppm). Moreover, the inhibition at 5 ppm in the experiment with Fusarium solani turned out to be 60%. In addition, the inhibition at 10 ppm in the experiment on Fusarium solani worked out at 85%. The inhibition at 20 ppm in the experiment with Fusarium solani was found to be 100%. Besides, the inhibition at 40 ppm with Fusarium solani was 100%. In addition, the pest or weed control at 150 ppm in the experiment on Uromyces phaseoli [1] and with Uromyces phaseoli [2] was 0% throughout.
In the case of `COc1cc(Cl)cc(Oc2nsnc(Cl)c2=O)c1` [Compound 52, 3-chloro-5-[(3-chloro-5-methoxy)phenoxy]-4H--1,2,6-thiadiazin-4-one], the “Spore Germination Rating” value in the experiment with Pyricularia oryzae (1.0 ppm) was 4 (80-100); in the experiment with Pyricularia oryzae (2.5 ppm) it was 0 (0-10); in the experiment with Pyricularia oryzae (10 ppm) it was 0 (0-10); in the experiment on Pyricularia oryzae (40 ppm), 0 (0-10). Also, the inhibition at 5 ppm with Fusarium solani was found to be 80%. For the same compound, the inhibition at 10 ppm in the experiment on Fusarium solani was found to be 90%. In the experiment on Fusarium solani, the inhibition at 20 ppm was 100%. Besides, the inhibition at 40 ppm in the experiment on Fusarium solani came to 100%. In addition, the pest or weed control at 150 ppm in the experiment on Uromyces phaseoli [1] and in the experiment with Uromyces phaseoli [2] was 0% throughout.
With `O=c1c(Cl)nsnc1Oc1ccc([N+](=O)[O-])cc1Cl` [Compound 53, 3-chloro-5-(2-chloro-4-nitrophenoxy)-4H--1,2,6-thiadiazin-4-one], the “Spore Germination Rating” value is recorded as 2 (40-60) with Pyricularia oryzae (1.0 ppm), 0 (0-10) with Pyricularia oryzae (2.5 ppm), 0 (0-10) with Pyricularia oryzae (10 ppm) and 0 (0-10) with Pyricularia oryzae (40 ppm). For the same compound, in the experiment with Fusarium solani, the inhibition at 5 ppm came out at 42%. Besides, the inhibition at 10 ppm with Fusarium solani turned out to be 68%. The inhibition at 20 ppm in the experiment with Fusarium solani came to 100%. The inhibition at 40 ppm in the experiment on Fusarium solani was found to be 100%. Moreover, the results for the pest or weed control at 150 ppm with Uromyces phaseoli [1] and in the experiment with Uromyces phaseoli [2] were 100% and 0%, respectively.
As for `Cc1cc(Oc2nsnc(Cl)c2=O)ccc1Cl` [Compound 54, 3-chloro-5-(4-chloro-3-methylphenoxy)-4H--1,2,6-thiadiazin-4-one], the “Spore Germination Rating” value in the experiment with Pyricularia oryzae (1.0 ppm), with Pyricularia oryzae (2.5 ppm), with Pyricularia oryzae (10 ppm) and with Pyricularia oryzae (40 ppm) was 0 (0-10) each time. In addition, the inhibition at 5 ppm in the experiment with Fusarium solani came to 27%. Moreover, the inhibition at 10 ppm in the experiment on Fusarium solani is 30%. In addition, the inhibition at 20 ppm with Fusarium solani was found to be 20%. Further, the inhibition at 40 ppm in the experiment with Fusarium solani turned out to be 20%. Also, the pest or weed control at 150 ppm came out at 100% with Uromyces phaseoli [1] and 0% in the experiment with Uromyces phaseoli [2].
In the case of `Cc1cc(Cl)ccc1Oc1nsnc(Cl)c1=O` [Compound 55, 3-chloro-5-(4-chloro-2-methylphenoxy)-4H--1,2,6-thiadiazin-4-one], the “Spore Germination Rating” value in the experiment with Pyricularia oryzae (1.0 ppm) is given as 1 (10-40); with Pyricularia oryzae (2.5 ppm), 0 (0-10); in the experiment with Pyricularia oryzae (10 ppm), 0 (0-10); in the experiment on Pyricularia oryzae (40 ppm), 0 (0-10). The inhibition at 5 ppm in the experiment with Fusarium solani was determined as 0%. Also, the inhibition at 10 ppm in the experiment on Fusarium solani amounted to 13%. In addition, the inhibition at 20 ppm in the experiment on Fusarium solani worked out at 17%. The inhibition at 40 ppm in the experiment with Fusarium solani came to 20%. In addition, the results for the pest or weed control at 150 ppm in the experiment with Uromyces phaseoli [1] and in the experiment with Uromyces phaseoli [2] were 100% and 0%, respectively.
Regarding `Cc1ccc(Cl)c(Oc2nsnc(Cl)c2=O)c1` [Compound 56, 3-chloro-5-[(2-chloro-5-methyl)phenoxy]-4H--1,2,6-thiadiazin-4-one], the “Spore Germination Rating” value with Pyricularia oryzae (1.0 ppm), with Pyricularia oryzae (2.5 ppm), with Pyricularia oryzae (10 ppm) and in the experiment on Pyricularia oryzae (40 ppm) was 0 (0-10) throughout. The inhibition at 5 ppm in the experiment on Fusarium solani is 70%. Moreover, the inhibition at 10 ppm in the experiment with Fusarium solani came out at 100%. The inhibition at 20 ppm with Fusarium solani was 100%. Moreover, in the experiment with Fusarium solani, the inhibition at 40 ppm is 100%. Moreover, the pest or weed control at 150 ppm stood at 0% in the experiment with Uromyces phaseoli [1] and 100% with Uromyces phaseoli [2].
For the compound `Cc1ccc(Oc2nsnc(Cl)c2=O)c(Br)c1` [Compound 57, 3-[(2-bromo-4-methyl)-phenoxy]-5-chloro-4H--1,2,6-thiadiazin-4-one], the “Spore Germination Rating” value with Pyricularia oryzae (1.0 ppm) was 0 (0-10); with Pyricularia oryzae (2.5 ppm) it was 2 (40-60); with Pyricularia oryzae (10 ppm) it was 0 (0-10); in the experiment with Pyricularia oryzae (40 ppm), 0 (0-10). Further, the inhibition at 5 ppm in the experiment with Fusarium solani was 88%. In addition, in the experiment on Fusarium solani, the inhibition at 10 ppm is 100%. Moreover, the inhibition at 20 ppm in the experiment with Fusarium solani was determined as 100%. Further, the inhibition at 40 ppm with Fusarium solani turned out to be 100%. The pest or weed control at 150 ppm with Uromyces phaseoli [1] was 100%; in the experiment with Uromyces phaseoli [2] it was 0%.
Consider `Cc1cc(Cl)c(Oc2nsnc(Cl)c2=O)cc1C` [Compound 58, 3-chloro-5-[(2-chloro-4,5-dimethyl)phenoxy]-4H--1,2,6-thiadiazin-4-one], for which the “Spore Germination Rating” value in the experiment with Pyricularia oryzae (1.0 ppm) was 4 (80-100); in the experiment with Pyricularia oryzae (2.5 ppm), 0 (0-10); in the experiment with Pyricularia oryzae (10 ppm), 0 (0-10); with Pyricularia oryzae (40 ppm), 0 (0-10). Further, in the experiment with Fusarium solani, the inhibition at 5 ppm worked out at 56%. Moreover, the inhibition at 10 ppm in the experiment with Fusarium solani stood at 56%. Moreover, the inhibition at 20 ppm in the experiment with Fusarium solani amounted to 56%. Also, the inhibition at 40 ppm in the experiment on Fusarium solani came to 44%. The pest or weed control at 150 ppm with Uromyces phaseoli [1] was 100%; in the experiment on Uromyces phaseoli [2], 0%.
As to `Cc1cc(Oc2nsnc(Cl)c2=O)cc(C)c1Cl` [Compound 59, 3-chloro-5-[(4-chloro-3,5-dimethyl)phenoxy]-4H--1,2,6-thiadiazin-4-one], the “Spore Germination Rating” value in the experiment on Pyricularia oryzae (1.0 ppm), with Pyricularia oryzae (2.5 ppm), in the experiment on Pyricularia oryzae (10 ppm) and with Pyricularia oryzae (40 ppm) was 0 (0-10) throughout. In addition, the inhibition at 5 ppm in the experiment with Fusarium solani is 50%. In addition, the inhibition at 10 ppm in the experiment with Fusarium solani was 56%. Further, the inhibition at 20 ppm in the experiment with Fusarium solani was 69%. In addition, the inhibition at 40 ppm in the experiment on Fusarium solani stood at 56%. Moreover, the pest or weed control at 150 ppm in the experiment on Uromyces phaseoli [1] and in the experiment with Uromyces phaseoli [2] was 0% in each case.
Regarding `Cc1cc(Oc2nsnc(Cl)c2=O)cc(C)c1Br` [Compound 60, 3-[(4-bromo-3,5-dimethyl)-phenoxy]-5-chloro-4H--1,2,6-thiadiazin-4-one], the “Spore Germination Rating” value with Pyricularia oryzae (1.0 ppm), in the experiment with Pyricularia oryzae (2.5 ppm), in the experiment on Pyricularia oryzae (10 ppm) and in the experiment with Pyricularia oryzae (40 ppm) was 0 (0-10) throughout. Besides, the inhibition at 5 ppm in the experiment on Fusarium solani stood at 63%. In addition, the inhibition at 10 ppm with Fusarium solani came to 50%. Moreover, in the experiment on Fusarium solani, the inhibition at 20 ppm was 56%. Besides, the inhibition at 40 ppm in the experiment on Fusarium solani is 75%. Further, the pest or weed control at 150 ppm with Uromyces phaseoli [1] came to 100%; in the experiment with Uromyces phaseoli [2] it was 0%.
For the compound `COc1cc(Oc2nsnc(Cl)c2=O)cc(OC)c1C(C)=O` [Compound 61, 3-[(4-acetyl-3,5-dimethoxy)-phenoxy]-5-chloro-4H--1,2,6-thiadiazin-4-one], the “Spore Germination Rating” value in the experiment with Pyricularia oryzae (1.0 ppm) is on record as 4 (80-100); in the experiment with Pyricularia oryzae (2.5 ppm) it was 4 (80-100); in the experiment with Pyricularia oryzae (10 ppm), 2 (40-60); in the experiment on Pyricularia oryzae (40 ppm), 1 (10-40). Further, the inhibition at 5 ppm in the experiment on Fusarium solani is 16%. Moreover, the inhibition at 10 ppm with Fusarium solani was 46%. Further, the inhibition at 20 ppm with Fusarium solani is 23%. Further, in the experiment with Fusarium solani, the inhibition at 40 ppm amounted to 0%. The pest or weed control at 150 ppm in the experiment with Uromyces phaseoli [1] came out at 100%; in the experiment with Uromyces phaseoli [2] it was 0%.
